Assay results taken from ChEMBL document CHEMBL1136126, “Development of 3D-QSAR models in cyclic ureidobenzenesulfonamides: human beta3-adrenergic receptor agonist” (Bioorg Med Chem Lett, 2003).

What was measured:
[1] = target: T1, Beta-3 adrenergic receptor (Homo sapiens, UniProt P13945); experiment: (§1) In vitro effective concentration against beta-3 adrenergic receptor.
[2] = target: T1, Beta-3 adrenergic receptor; experiment: as §1; remark: listed apart in the source

T1 sequence (P13945 whole entry): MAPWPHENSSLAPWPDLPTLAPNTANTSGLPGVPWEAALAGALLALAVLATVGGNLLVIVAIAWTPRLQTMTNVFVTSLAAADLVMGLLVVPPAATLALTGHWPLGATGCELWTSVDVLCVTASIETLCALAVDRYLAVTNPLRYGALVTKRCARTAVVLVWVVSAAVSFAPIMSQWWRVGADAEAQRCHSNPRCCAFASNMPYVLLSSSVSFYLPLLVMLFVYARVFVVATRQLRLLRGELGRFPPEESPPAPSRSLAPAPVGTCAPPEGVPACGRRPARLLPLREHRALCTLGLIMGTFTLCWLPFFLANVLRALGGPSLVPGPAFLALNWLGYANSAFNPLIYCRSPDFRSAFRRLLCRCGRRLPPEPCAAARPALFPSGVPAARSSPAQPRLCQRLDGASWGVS

EC50 [1] [nM]	EC50 [2] [nM]	Structure (SMILES)
15	15.1	CCCCCCCCN1NCN(c2ccc(S(=O)(=O)Nc3ccc(CCNC[C@H](O)c4cccnc4)cc3)cc2)C1=O
5.4	5.37	CCCCCCCCN1CNN(c2ccc(S(=O)(=O)Nc3ccc(CCNC[C@H](O)c4cccnc4)cc3)cc2)C1=O
	275	CCCCCCN1CC(=O)N(c2ccc(S(=O)(=O)Nc3ccc(CCNC[C@H](O)c4cccnc4)cc3)cc2)C1=O
